The numbers were not newly measured in patent publication US8962595B2, “Compositions of small molecule therapeutics” (Nexmed Holdings, Inc., priority 2010, dated 2015), which cites them from elsewhere.

The conditions of this data set: water.

`NS(=O)(=O)c1cc2c(cc1Cl)N=CNS2(=O)=O` [Chlorothiazide, chlorothiazide]: the “Sol. H2O (reported solubility from the literature)” value was 3000 µg/mL.
